# Reference: PubChem BioAssay (NCI)
#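 Protocol summary: plate cells (96-well), add compound at 5 concentrations, incubate 48 h, interpolate endpoints linearly. GI50 marks 50% less growth. TGI marks complete inhibition of growth.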
# Experiments:
# Experiment in all cases: growth of human tumour cells (NCI), 48 h
# [1] = system: OVCAR-8 ovarian
# [2] = system: COLO 205 colon
# [3] = system: HT29 colon
# [4] = system: SF-295 CNS
# [5] = system: RPMI-8226 leukemia
# [6] = system: ACHN renal
# [7] = system: MDA-MB-435
# [8] = system: SK-MEL-5 melanoma
# [9] = system: LOX IMVI melanoma
# [10] = system: DU-145 prostate
# [11] = system: NCI-H23 lung
# [12] = system: UO-31 renal
# [13] = system: NCI-H522 lung
# [14] = system: SF-539 CNS
# [15] = system: SF-268 CNS
# [16] = system: KM12 colon
# [17] = system: OVCAR-4 ovarian
# [18] = system: MDA-MB-231 breast
# [19] = system: UACC-257 melanoma
# [20] = system: A498 renal
# [21] = system: CCRF-CEM leukemia
# [22] = system: UACC-62 melanoma
# [23] = system: SN12C renal
# [24] = system: CAKI-1 renal
# [25] = system: OVCAR-3 ovarian
# [26] = system: SK-MEL-28 melanoma
# [27] = system: HCT-116 colon
# [28] = system: RXF 393 renal
# [29] = system: HL-60(TB) leukemia
# [30] = system: SR leukemia
# [31] = system: MALME-3M melanoma
# [32] = system: SNB-19 CNS
# [33] = system: HS 578T breast
# [34] = system: SK-MEL-2 melanoma
# [35] = system: SK-OV-3 ovarian
# [36] = system: MCF7 breast
# [37] = system: NCI/ADR-RES ovarian
# [38] = system: SNB-75 CNS
# [39] = system: NCI-H226 lung
# [40] = system: T-47D breast
# [41] = system: IGROV1 ovarian
# [42] = system: SW-620 colon
# [43] = system: HCT-15 colon
# [44] = system: MOLT-4 leukemia
# [45] = system: M14 melanoma
# [46] = system: BT-549 breast
# [47] = system: K-562 leukemia
# [48] = system: HOP-62 NSCLC
# [49] = system: HOP-92 NSCLC
# [50] = system: PC-3 prostate
# [51] = system: HCC-2998 colon
# [52] = system: EKVX NSCLC
# [53] = system: A549 NSCLC
# [54] = system: NCI-H460 lung
# [55] = system: OVCAR-5 ovarian
# [56] = system: 786-0 renal
# [57] = system: TK-10 renal
# [58] = system: U251 CNS
compound,measurement,setting,value
COc1ccc2c(O)c(/C=C3\N=Nc4ncccc43)oc2c1C[C@H]1CCNC[C@H]1F,GI50,[1],477 nM
same,TGI,[1],12300 nM
same,GI50,[2],240 nM
same,TGI,[2],806 nM
same,GI50,[3],411 nM
same,TGI,[3],6930 nM
same,GI50,[4],343 nM
same,TGI,[4],11900 nM
same,GI50,[5],286 nM
same,TGI,[5],1060 nM
same,GI50,[6],270 nM
same,TGI,[6],8180 nM
same,GI50,[7],467 nM
same,TGI,[7],10600 nM
same,GI50,[8],942 nM
same,TGI,[8],10600 nM
same,GI50,[9],304 nM
same,TGI,[9],1780 nM
same,GI50,[10],753 nM
same,TGI,[10],12000 nM
same,GI50,[11],475 nM
same,TGI,[11],4700 nM
same,GI50,[12],146 nM
same,TGI,[12],3160 nM
same,GI50,[13],206 nM
same,TGI,[13],2230 nM
same,GI50,[14],252 nM
same,TGI,[14],952 nM
same,GI50,[15],296 nM
same,TGI,[15],10400 nM
same,GI50,[16],390 nM
same,TGI,[16],4790 nM
same,GI50,[17],566 nM
same,TGI,[17],6840 nM
same,GI50,[18],184 nM
same,TGI,[18],3020 nM
same,GI50,[19],2660 nM
same,TGI,[19],10200 nM
same,GI50,[20],238 nM
same,TGI,[20],2910 nM
same,GI50,[21],227 nM
same,TGI,[21],876 nM
same,GI50,[22],476 nM
same,TGI,[22],2380 nM
same,GI50,[23],442 nM
same,TGI,[23],10600 nM
same,GI50,[24],161 nM
same,TGI,[24],11300 nM
same,GI50,[25],431 nM
same,TGI,[25],11400 nM
same,GI50,[26],2220 nM
same,TGI,[26],12000 nM
same,GI50,[27],131 nM
same,TGI,[27],2150 nM
same,GI50,[28],183 nM
same,TGI,[28],550 nM
same,GI50,[29],246 nM
same,TGI,[29],625 nM
same,GI50,[30],30 nM
same,TGI,[30],3180 nM
same,GI50,[31],1610 nM
same,TGI,[31],5150 nM
same,GI50,[32],419 nM
same,TGI,[32],11600 nM
same,GI50,[33],160 nM
same,TGI,[33],5340 nM
same,GI50,[34],1100 nM
same,TGI,[34],3730 nM
same,GI50,[35],1570 nM
same,TGI,[35],9050 nM
same,GI50,[36],207 nM
same,TGI,[36],9180 nM
same,GI50,[37],3370 nM
same,TGI,[37],28900 nM
same,GI50,[38],185 nM
same,TGI,[38],1540 nM
same,GI50,[39],160 nM
same,TGI,[39],5290 nM
same,GI50,[40],3460 nM
same,TGI,[40],21100 nM
same,GI50,[41],353 nM
same,TGI,[41],5060 nM
same,GI50,[42],291 nM
same,TGI,[42],2220 nM
same,GI50,[43],507 nM
same,TGI,[43],12200 nM
same,GI50,[44],294 nM
same,TGI,[44],1620 nM
same,GI50,[45],589 nM
same,TGI,[45],3640 nM
same,GI50,[46],211 nM
same,TGI,[46],2300 nM
same,GI50,[47],436 nM
same,TGI,[47],27400 nM
same,GI50,[48],409 nM
same,TGI,[48],3940 nM
same,GI50,[49],2390 nM
same,TGI,[49],11300 nM
same,GI50,[50],267 nM
same,TGI,[50],11100 nM
same,GI50,[51],2380 nM
same,TGI,[51],11500 nM
same,GI50,[52],484 nM
same,TGI,[52],9620 nM
same,GI50,[53],1740 nM
same,TGI,[53],10800 nM
same,GI50,[54],388 nM
same,TGI,[54],1800 nM
same,GI50,[55],479 nM
same,TGI,[55],24600 nM
same,GI50,[56],241 nM
same,TGI,[56],1610 nM
same,GI50,[57],479 nM
same,TGI,[57],9130 nM
same,GI50,[58],307 nM
same,TGI,[58],3290 nM
